# Source: patent US20020111274A1, “1-alkyl-3-[1-(substituted phenyl) benzotriazol-6-yl] uracils” (BASF Aktiengesellschaft, priority 2000, published 2002)
# Experiments:
# Design in all cases: scale not given here
# ECHOG Barnyardgrass = assay: Postemergence herbicidal evaluation, ECHOG; assay type: in vivo, Echinochloa crus-galli, (L.) Beau
# In short: (§1)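 Plants are raised for roughly two weeks, then treated postemergence with compound dispersed in acetone/water (80/20) plus 1.0% seed oil adjuvant, at rates of about 0.006 kg to 0.400 kg per hectare. After greenhouse care, damage is scored two to three weeks later.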
# [1] = test system: CHEAL Lambsquarters, Common; assay: Preemergence herbicidal evaluation, CHEAL; assay type: in vivo, Chenopodium album, L.; settings: for CHEAL herbicidal rating: preemergence; for Preemergence herbicidal rating, CHEAL: rated four to five weeks after treatment
# In short: (§2)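 Visual ratings were taken four to five weeks after application. Before that, cups sown with seed in potting soil received a spray of compound dissolved in aqueous acetone, equivalent to about 0.013 to 0.800 kg/ha, and stood on greenhouse benches under conventional care.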
# GLXMAW Soybean, Williams [2] = assay: Postemergence herbicidal evaluation, GLXMAW; assay type: in vivo, Glycine max, (L.) Merr. cv Williams
# In short: as §1
# ABUTH Velvetleaf = assay: Postemergence herbicidal evaluation, ABUTH; assay type: in vivo, Abutilon theophrasti, Medic.
# In short: as §1
# GALAP Galium = assay: Preemergence herbicidal evaluation, GALAP; assay type: in vivo, Galium aparine; settings: for GALAP herbicidal rating: preemergence; for Preemergence herbicidal rating, GALAP: rated four to five weeks after treatment
# In short: as §2
# [3] = test system: TRZAWR Wheat, Winter, cv Riband; assay: Postemergence herbicidal evaluation, TRZAWR; assay type: in vivo, Triticum aestivum
# In short: as §1
# GLXMAW Soybean, Williams [4] = assay: Preemergence herbicidal evaluation, GLXMAW; assay type: in vivo, Glycine max, (L.) Merr. cv Williams; settings: for GLXMAW herbicidal rating: preemergence; for Preemergence herbicidal rating, GLXMAW: rated four to five weeks after treatment
# In short: as §2
# [5] = test system: IPOHE Morningglory, Ivyleaf; assay: Preemergence herbicidal evaluation, IPOHE; assay type: in vivo, Ipomoea hederacea, (L.) Jacq.; settings: for IPOHE herbicidal rating: preemergence; for Preemergence herbicidal rating, IPOHE: rated four to five weeks after treatment
# In short: as §2
# AMBEL Ragweed, Common [6] = assay: Postemergence herbicidal evaluation, AMBEL; assay type: in vivo, Ambrosia artemisifolia, L.
# In short: as §1
# ORYSAT Rice, Tebonnet = assay: Postemergence herbicidal evaluation, ORYSAT; assay type: in vivo, Oryza sativa, (L.)
# In short: as §1
# ZEAMX Corn, Field = assay: Preemergence herbicidal evaluation, ZEAMX; assay type: in vivo, Zea mays, L. (Sammel-Bezeichnung); settings: for ZEAMX herbicidal rating: preemergence; for Preemergence herbicidal rating, ZEAMX: rated four to five weeks after treatment
# In short: as §2
# AMBEL Ragweed, Common [7] = assay: Preemergence herbicidal evaluation, AMBEL; assay type: in vivo, Ambrosia artemisifolia, L.; settings: for AMBEL herbicidal rating: preemergence; for Preemergence herbicidal rating, AMBEL: rated four to five weeks after treatment
# In short: as §2
# [8] = 0.016 kg/ha, postemergence spray, rated about two-three weeks after treatment
# [9] = 0.032 kg/ha, postemergence spray, rated about two-three weeks after treatment
# [10] = 0.062 kg/ha, postemergence spray, rated about two-three weeks after treatment
# [11] = rate 0.008 kg/ha, rated two - three weeks after treatment
smiles,measurement,setting,value
Cn1c(C(F)(F)F)cc(=O)n(-c2cc3c(cc2F)nnn3-c2ccc(OCC(=O)O)cc2)c1=O [Example 44],Postemergence herbicidal rating ECHCG,ECHOG Barnyardgrass; [8],4.0
same,Postemergence herbicidal rating ECHCG,ECHOG Barnyardgrass; [9],6.0
same,Postemergence herbicidal rating ECHCG,ECHOG Barnyardgrass; [10],6.0
same,Postemergence herbicidal rating ECHCG,ECHOG Barnyardgrass; [11],3.0
same,CHEAL herbicidal rating,[1]; rate 0.062 kg/ha,9.0
same,CHEAL herbicidal rating,[1]; rate 0.125 kg/ha,9.0
same,"Preemergence herbicidal rating, CHEAL",[1]; rate 0.016 kg/ha,9.0
same,"Preemergence herbicidal rating, CHEAL",[1]; rate 0.032 kg/ha,9.0
same,Postemergence herbicidal rating GLXMAW,"GLXMAW Soybean, Williams [2]; [8]",6.5
same,Postemergence herbicidal rating GLXMAW,"GLXMAW Soybean, Williams [2]; [9]",6.5
same,Postemergence herbicidal rating GLXMAW,"GLXMAW Soybean, Williams [2]; [10]",7.0
same,Postemergence herbicidal rating GLXMAW,"GLXMAW Soybean, Williams [2]; [11]",5.0
same,Postemergence herbicidal rating ABUTH,ABUTH Velvetleaf; [8],9.0
same,Postemergence herbicidal rating ABUTH,ABUTH Velvetleaf; [9],7.0
same,Postemergence herbicidal rating ABUTH,ABUTH Velvetleaf; [10],9.0
same,Postemergence herbicidal rating ABUTH,ABUTH Velvetleaf; [11],9.0
same,GALAP herbicidal rating,GALAP Galium; rate 0.062 kg/ha,4.0
same,GALAP herbicidal rating,GALAP Galium; rate 0.125 kg/ha,7.0
same,"Preemergence herbicidal rating, GALAP",GALAP Galium; rate 0.016 kg/ha,3.0
same,"Preemergence herbicidal rating, GALAP",GALAP Galium; rate 0.032 kg/ha,5.0
same,Postemergence herbicidal rating TRZAWR,[3]; [8],4.0
same,Postemergence herbicidal rating TRZAWR,[3]; [9],3.5
same,Postemergence herbicidal rating TRZAWR,[3]; [10],4.0
same,Postemergence herbicidal rating TRZAWR,[3]; [11],3.0
same,GLXMAW herbicidal rating,"GLXMAW Soybean, Williams [4]; rate 0.062 kg/ha",0.0
same,GLXMAW herbicidal rating,"GLXMAW Soybean, Williams [4]; rate 0.125 kg/ha",0.0
same,"Preemergence herbicidal rating, GLXMAW","GLXMAW Soybean, Williams [4]; rate 0.016 kg/ha",0.0
same,"Preemergence herbicidal rating, GLXMAW","GLXMAW Soybean, Williams [4]; rate 0.032 kg/ha",0.0
same,IPOHE herbicidal rating,[5]; rate 0.062 kg/ha,0.0
same,IPOHE herbicidal rating,[5]; rate 0.125 kg/ha,2.0
same,"Preemergence herbicidal rating, IPOHE",[5]; rate 0.016 kg/ha,0.0
same,"Preemergence herbicidal rating, IPOHE",[5]; rate 0.032 kg/ha,0.0
same,Postemergence herbicidal rating AMBEL,"AMBEL Ragweed, Common [6]; [8]",3.0
same,Postemergence herbicidal rating AMBEL,"AMBEL Ragweed, Common [6]; [9]",6.0
same,Postemergence herbicidal rating AMBEL,"AMBEL Ragweed, Common [6]; [10]",7.0
same,Postemergence herbicidal rating AMBEL,"AMBEL Ragweed, Common [6]; [11]",3.0
same,Postemergence herbicidal rating ORYSAT,"ORYSAT Rice, Tebonnet; [8]",2.5
same,Postemergence herbicidal rating ORYSAT,"ORYSAT Rice, Tebonnet; [9]",2.5
same,Postemergence herbicidal rating ORYSAT,"ORYSAT Rice, Tebonnet; [10]",3.0
same,Postemergence herbicidal rating ORYSAT,"ORYSAT Rice, Tebonnet; [11]",2.5
same,ZEAMX herbicidal rating,"ZEAMX Corn, Field; rate 0.062 kg/ha",1.0
same,ZEAMX herbicidal rating,"ZEAMX Corn, Field; rate 0.125 kg/ha",1.0
same,"Preemergence herbicidal rating, ZEAMX","ZEAMX Corn, Field; rate 0.016 kg/ha",0.0
same,"Preemergence herbicidal rating, ZEAMX","ZEAMX Corn, Field; rate 0.032 kg/ha",0.0
same,AMBEL herbicidal rating,"AMBEL Ragweed, Common [7]; rate 0.062 kg/ha",0.0
same,AMBEL herbicidal rating,"AMBEL Ragweed, Common [7]; rate 0.125 kg/ha",0.0
same,"Preemergence herbicidal rating, AMBEL","AMBEL Ragweed, Common [7]; rate 0.016 kg/ha",1.0
same,"Preemergence herbicidal rating, AMBEL","AMBEL Ragweed, Common [7]; rate 0.032 kg/ha",0.0
